Results reported in patent publication US7880007B2, “Bicyclic substituted phenyl piperidine modulators of muscarinic receptors” (Vertex Pharmaceuticals Incorporated, priority 2004, dated 2011).

Tests used:
Type in all cases: cell-based
[1] = molecular target: T1, M2 muscarinic receptor (Homo sapiens, UniProt P08172); assay: Functional mobilization of intracellular calcium (FLIPR), M2-CHO cells; conditions: for Emax: 100% efficacy = maximum response obtained with the Carbachol control; for M2 Activity: M2-CHO cells, calcium mobilization (FLIPR)
T1 construct: expressed in transfected cells; host or cells: CHO (M2-CHO)
T1 sequence (P08172 1-466): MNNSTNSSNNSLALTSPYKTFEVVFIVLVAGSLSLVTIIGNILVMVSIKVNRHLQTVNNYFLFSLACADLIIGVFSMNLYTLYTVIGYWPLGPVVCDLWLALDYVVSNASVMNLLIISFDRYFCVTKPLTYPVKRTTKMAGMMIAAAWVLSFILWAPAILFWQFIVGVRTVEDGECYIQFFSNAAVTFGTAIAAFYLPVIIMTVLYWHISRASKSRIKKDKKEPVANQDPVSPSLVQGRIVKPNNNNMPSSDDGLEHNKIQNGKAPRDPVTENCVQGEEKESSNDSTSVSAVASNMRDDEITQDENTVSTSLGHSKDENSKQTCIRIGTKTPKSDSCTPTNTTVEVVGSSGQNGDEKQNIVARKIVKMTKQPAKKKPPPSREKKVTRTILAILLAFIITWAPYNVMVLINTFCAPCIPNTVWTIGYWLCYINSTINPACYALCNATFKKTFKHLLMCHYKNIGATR
Protocol: (§1) Functional Mobilization of Intracellular Calcium to Determine Muscarinic Receptor Activity:
(§2) CHO cells expressing muscarinic receptors (M1 to M5) are grown as monolayers in tissue culture flasks at 37° C. in a humidified atmosphere containing 5% CO2 and passaged every 3-5 days. The growth media is Dulbecco's modified eagles medium (DMEM, Gibco Cat #12430-054), containing 25 mM Hepes and supplemented with Fetal Bovine Serum (Hyclone, cat #SH30071.03), 0.1 mM of MEM non-essential amino acids (GIBCO, Cat #11140-050), 1 mM MEM Sodium Pyruvate (GIBCO Cat #11360-070) and 100 units/ml of Penicillin G and 100 μg/ml of Streptomycin (GIBCO Cat #15140-122). The recombinant muscarinic receptor cell lines are grown under antibiotic pressure with media containing 25 μg/ml zeocin and 500 μg/ml G418 (M1-CHO), 4 μg/ml puromycin, 50 μg/ml zeocin and 2.5 μg/ml blasticidin (M2 and M4-CHO) or 50 μg/ml zeocin and 4 μg/ml puromycin (M3 and M5-CHO).
(§3) Cells are harvested at 80-90% confluence using Versene (GIBCO Cat #15040-066), collected by centrifugation and seeded 18-24 hrs prior to running the calcium assay at a density of 5,000-10,000 cells/well in […], clear-bottomed 384-well plates (BD Biocoat, poly-D-lysine, Cat #356663). The day of the experiment, the cells are washed with a plate washer (Bioteck Instruments, ELX 405) using bath 1 buffer (140-mM NaCl, 4.5-mM KCl, 2-mM CaCl2, 1-mM MgCl2, 10-mM Hepes-Na, 10-mM Glucose, pH 7.4, with NaOH) containing 1 mM Probenecid. Next, the calcium dye Fluo-3 (25 μl/well of Fluo-3 AM at 4 μM, Molecular Probes F-1241, in Bath 1 buffer containing 1 mM Probenecid) is added to the 25 μl of Bath 1 remaining in each well after the plate wash and the dye is loaded at 37° C. in the tissue culture incubator for 60-90 min. The fluorescent dye is removed using the plate washer with Bath 1 containing 1 mM Probenecid, leaving 25 μl/well of this solution after the wash. Alternatively, cells can be loaded with the calcium indicator from Molecular Devices (Calcium 3 Assay Reagents, Cat #R7181) adding 5 μl of a 5× solution dye in Bath 1 containing 1 mM Probenecid (10 ml per dye flask cat #R7182 to generate a solution 20×) to 20 μl of the same buffer. After loading for 60 min, the experiment can be run without having to remove the dye.
(§4) Compounds are prepared at a 2× fold concentration in a 96-well plate (round bottom, Costar Corning cat #3656), by reconstituting the pre-spotted compounds in bath 1 containing 1 mM probenecid. The final concentration DMSO is 0.5%, and the amount of DMSO is normalized across the assay plate. To determine an agonist action of the compounds on muscarinic receptors, the reconstituted compounds are added (25 μl compound/well) to the cell assay plate (containing 25 μl/well) using the multi-channel robotic system of the FLIPR 3 Instrument (Molecular Devices, Sunnyvale, Calif.). To determine a functional inhibitory action of the compounds on muscarinic receptors, the reconstituted compounds are added (25 μl compound/well) to the assay plate and pre-incubated for 15 min prior to adding 25 μl of Carbachol at 3× the EC80 for each muscarinic subtype. Alternatively, the compounds can be co-applied simultaneously with the agonist. In both assay modes, the fluorescence is recorded for 60 sec (excitation wavelength is […] and emission wavelength 540 nm) using the FLIPR 3 instrument.
(§5) The potency, efficacy and selectivity of the muscarinic compounds were evaluated by screening the compound activity across the whole family (M1 to M5 cells). Compounds were also screened for activity on other proteins such as other GPCRs and ion channels to determine selectivity on M4 receptors.
(§6) Examples of activities and efficacies of the muscarinic compounds of formulae (I, Ia, Ib, and II) on modulating M1, M2, M3 and M4 receptors are shown below in Table 3. […]

[2] = molecular target: T2, M4 muscarinic receptor (Homo sapiens, UniProt P08173); assay: Functional mobilization of intracellular calcium (FLIPR), M4-CHO cells; conditions: for Emax: 100% efficacy = maximum response obtained with the Carbachol control; for M4 Activity: M4-CHO cells, calcium mobilization (FLIPR)
T2 construct: expressed in transfected cells; host or cells: CHO (M4-CHO)
T2 sequence (P08173 1-479): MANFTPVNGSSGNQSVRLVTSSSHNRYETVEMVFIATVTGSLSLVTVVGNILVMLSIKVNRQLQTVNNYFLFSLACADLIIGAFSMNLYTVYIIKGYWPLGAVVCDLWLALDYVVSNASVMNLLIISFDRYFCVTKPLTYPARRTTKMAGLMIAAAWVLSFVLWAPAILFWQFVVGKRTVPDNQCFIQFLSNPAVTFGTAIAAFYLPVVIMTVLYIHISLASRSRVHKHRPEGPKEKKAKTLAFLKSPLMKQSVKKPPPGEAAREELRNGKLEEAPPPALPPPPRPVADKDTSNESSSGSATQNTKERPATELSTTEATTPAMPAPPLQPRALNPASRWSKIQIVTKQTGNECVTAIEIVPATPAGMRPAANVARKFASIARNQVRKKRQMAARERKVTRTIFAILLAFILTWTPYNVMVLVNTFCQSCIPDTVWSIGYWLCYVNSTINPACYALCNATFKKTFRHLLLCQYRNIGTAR
Protocol: as §1, §2, §3, §4, §5, §6

[3] = molecular target: T3, M1 muscarinic receptor (Homo sapiens, UniProt P11229); assay: Functional mobilization of intracellular calcium (FLIPR), M1-CHO cells; conditions: for Emax: 100% efficacy = maximum response obtained with the Carbachol control; for M1 Activity: M1-CHO cells, calcium mobilization (FLIPR)
T3 construct: expressed in transfected cells; host or cells: CHO (M1-CHO)
T3 sequence (P11229 1-460): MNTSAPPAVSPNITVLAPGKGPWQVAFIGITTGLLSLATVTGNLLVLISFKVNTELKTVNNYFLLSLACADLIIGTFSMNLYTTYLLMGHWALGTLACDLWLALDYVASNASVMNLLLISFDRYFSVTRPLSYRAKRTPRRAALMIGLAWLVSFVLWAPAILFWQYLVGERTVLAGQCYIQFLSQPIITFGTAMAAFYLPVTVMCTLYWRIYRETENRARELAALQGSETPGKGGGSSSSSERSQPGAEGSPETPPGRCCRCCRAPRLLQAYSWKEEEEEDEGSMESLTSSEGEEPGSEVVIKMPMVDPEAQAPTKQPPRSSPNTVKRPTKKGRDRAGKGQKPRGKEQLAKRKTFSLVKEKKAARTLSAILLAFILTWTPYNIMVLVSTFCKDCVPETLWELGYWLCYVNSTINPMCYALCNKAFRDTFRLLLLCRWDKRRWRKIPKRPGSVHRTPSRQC
Protocol: as §1, §2, §3, §4, §5, §6

SMILES	Emax [1] [%]	M2 Activity [1]	Emax [2] [%]	M4 Activity [2]	Emax [3] [%]	M1 Activity [3]
COc1ccc(C)cc1C1CCN(CC2C[C@H]3CC[C@H]2C3)CC1 (stereo partly drawn) [Compound 107]	< 25	+ (activity was measured to be greater than 5.0 μM)	25 to 100	+++ (activity was measured to be less than 1.0 μM)	25 to 100	+ (activity was measured to be greater than 5.0 μM)
CCCC1CCC(N2CCC(c3cc(F)ccc3OC)CC2)CC1 (stereo not drawn) [Compound 125]	25 to 100	++ (activity was measured to be from 1.0 μM to 5.0 μM)	25 to 100	+++ (activity was measured to be less than 1.0 μM)	25 to 100	+++ (activity was measured to be less than 1.0 μM)
CCOC(=O)N1C2CCC1CC(N1CCC(C#N)(c3ccccc3OC)CC1)C2 (stereo not drawn) [Compound 131]	< 25	+ (activity was measured to be greater than 5.0 μM)	25 to 100	+++ (activity was measured to be less than 1.0 μM)	25 to 100	+++ (activity was measured to be less than 1.0 μM)
COc1ccccc1C1(C#N)CCN(C2CC3CCC2C3)CC1 (stereo not drawn) [Compound 136]	< 25	+ (activity was measured to be greater than 5.0 μM)	25 to 100	++ (activity was measured to be from 1.0 μM to 5.0 μM)	25 to 100	+ (activity was measured to be greater than 5.0 μM)
COc1ccc(Cl)cc1C1CCN(CC2CC3C=CC2C3)CC1 (stereo not drawn) [Compound 141]	25 to 100	++ (activity was measured to be from 1.0 μM to 5.0 μM)	25 to 100	+++ (activity was measured to be less than 1.0 μM)	25 to 100	++ (activity was measured to be from 1.0 μM to 5.0 μM)
CCOC(=O)N1[C@@H]2CC[C@@H]1CC(N1CCC(c3cc(F)ccc3C)CC1)C2 (stereo partly drawn) [Compound 145]	25 to 100	+++ (activity was measured to be less than 1.0 μM)	25 to 100	+++ (activity was measured to be less than 1.0 μM)	25 to 100	+++ (activity was measured to be less than 1.0 μM)
COc1ccc(C2CCN(CC3C[C@H]4CC[C@H]3C4)CC2)c(OC)c1 (stereo partly drawn) [Compound 159]	< 25	+ (activity was measured to be greater than 5.0 μM)	< 25	++ (activity was measured to be from 1.0 μM to 5.0 μM)	< 25	+ (activity was measured to be greater than 5.0 μM)
CCCC1CCC(N2CCC(O)(c3cc(Cl)ccc3OC)CC2)CC1 (stereo not drawn) [Compound 164]	< 25	+ (activity was measured to be greater than 5.0 μM)	25 to 100	++ (activity was measured to be from 1.0 μM to 5.0 μM)	< 25	+ (activity was measured to be greater than 5.0 μM)
COc1ccc(NC(C)=O)cc1C1CCN(CC2C[C@H]3CC[C@H]2C3)CC1 (stereo partly drawn) [Compound 166]	< 25	+ (activity was measured to be greater than 5.0 μM)	< 25	+ (activity was measured to be greater than 5.0 μM)	< 25	+ (activity was measured to be greater than 5.0 μM)
COc1ccccc1C1(C#N)CCN(C[C@H]2C[C@H]3CC[C@H]2C3)CC1 [Compound 172]	25 to 100	+++ (activity was measured to be less than 1.0 μM)	25 to 100	+++ (activity was measured to be less than 1.0 μM)	25 to 100	+++ (activity was measured to be less than 1.0 μM)
COc1ccc(Cl)cc1C1(OC)CCN(C2CCOCC2)CC1 [Compound 201]	< 25	+ (activity was measured to be greater than 5.0 μM)	< 25	+ (activity was measured to be greater than 5.0 μM)	< 25	+ (activity was measured to be greater than 5.0 μM)
COc1ccc(Cl)cc1C1(OC)CCN(C2CCCCC2)CC1 [Compound 203]	< 25	+ (activity was measured to be greater than 5.0 μM)	25 to 100	++ (activity was measured to be from 1.0 μM to 5.0 μM)	25 to 100	+ (activity was measured to be greater than 5.0 μM)
COc1ccccc1C1CCN(CC2CC3CCC2O3)CC1 (stereo not drawn) [Compound 218]	< 25	+ (activity was measured to be greater than 5.0 μM)	25 to 100	++ (activity was measured to be from 1.0 μM to 5.0 μM)	< 25	+ (activity was measured to be greater than 5.0 μM)
